Experimental data published in PMC12797721 (Cell Communication and Signaling : CCS, 2025).

Assays:
[1] = target: C18ORF32 (Homo sapiens, UniProt Q8TCD1, F19A/Y16A/Y23A/Y25A); assay: isothermal titration calorimetry; assay type: binding
[2] = target: C18ORF32 (Homo sapiens, UniProt Q8TCD1); assay: isothermal titration calorimetry; assay type: binding
Sequence of C18ORF32 (Homo sapiens, UniProt Q8TCD1) (Q8TCD1 whole entry): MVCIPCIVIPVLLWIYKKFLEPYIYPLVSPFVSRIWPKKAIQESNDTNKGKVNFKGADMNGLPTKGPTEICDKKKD

Sequence of C18ORF32 (Homo sapiens, UniProt Q8TCD1, F19A/Y16A/Y23A/Y25A) (Q8TCD1 whole entry Y16A/F19A/Y23A/Y25A): as the sequence (Q8TCD1 whole entry) above, with Y16A, F19A, Y23A, Y25A counted along it

With `C[N+](C)(C)CCO` [choline] the Kd [1] was 557 µM and the Kd [2] was 0.0678 µM.
